# From paper PMC4452296, “Comparison of Paeoniflorin and Albiflorin on Human CYP3A4 and CYP2D6” (Evidence-based Complementary and Alternative Medicine : eCAM, 2015)
# How the values were obtained:
# CYP3A4 = CYP3A4 (Homo sapiens, UniProt P08684); assay: biochemical
# CYP2D6 = CYP2D6 (Homo sapiens, UniProt P10635); assay: biochemical
# Sequence of CYP2D6 (P10635 whole entry): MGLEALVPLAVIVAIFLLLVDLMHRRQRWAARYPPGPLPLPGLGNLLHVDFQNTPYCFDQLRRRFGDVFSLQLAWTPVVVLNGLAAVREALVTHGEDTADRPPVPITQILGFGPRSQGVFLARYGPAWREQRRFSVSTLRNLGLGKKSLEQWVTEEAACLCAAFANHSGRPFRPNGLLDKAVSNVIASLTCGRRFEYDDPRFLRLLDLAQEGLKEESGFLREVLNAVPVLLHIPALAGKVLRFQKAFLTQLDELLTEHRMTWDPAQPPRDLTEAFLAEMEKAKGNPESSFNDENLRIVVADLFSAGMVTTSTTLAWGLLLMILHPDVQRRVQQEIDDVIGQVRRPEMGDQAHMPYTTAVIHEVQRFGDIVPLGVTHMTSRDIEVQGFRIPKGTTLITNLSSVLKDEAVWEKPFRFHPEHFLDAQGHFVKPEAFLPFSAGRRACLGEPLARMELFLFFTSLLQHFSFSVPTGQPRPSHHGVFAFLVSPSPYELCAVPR
# Sequence of CYP3A4 (P08684 2-503): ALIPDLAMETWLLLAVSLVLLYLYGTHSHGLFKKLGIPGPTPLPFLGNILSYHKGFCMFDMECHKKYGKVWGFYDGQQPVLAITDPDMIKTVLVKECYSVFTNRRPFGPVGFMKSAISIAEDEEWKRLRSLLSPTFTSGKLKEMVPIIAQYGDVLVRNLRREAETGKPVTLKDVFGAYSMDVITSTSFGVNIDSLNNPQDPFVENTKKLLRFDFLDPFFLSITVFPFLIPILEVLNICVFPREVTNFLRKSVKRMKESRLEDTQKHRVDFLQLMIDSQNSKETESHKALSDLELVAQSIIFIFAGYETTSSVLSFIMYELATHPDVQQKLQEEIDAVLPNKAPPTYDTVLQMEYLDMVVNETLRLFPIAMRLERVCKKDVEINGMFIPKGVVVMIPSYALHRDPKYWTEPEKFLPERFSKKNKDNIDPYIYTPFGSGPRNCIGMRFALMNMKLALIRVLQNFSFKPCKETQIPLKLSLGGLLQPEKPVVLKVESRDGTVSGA
IC50 (CYP3A4),IC50 (CYP2D6),Compound
4.79 mM,12.7 mM,C[C@@]12C[C@@]3(O)O[C@@H](O1)[C@]1(COC(=O)c4ccccc4)[C@H]3C[C@@]12O[C@@H]1O[C@H](CO)[C@@H](O)[C@H](O)[C@H]1O [paeoniflorin]
11.4 mM,14.4 mM,CC12CC(O)C3CC1(O[C@@H]1O[C@H](CO)[C@@H](O)[C@H](O)[C@H]1O)C3(COC(=O)c1ccccc1)C(=O)O2 (stereo partly shown) [albiflorin]
